The text below walks through data of ChEMBL document CHEMBL4421719, “Modulation of k2p channels” (2016).

Active and inactive are the calls of the source. The calls are words filed in the database; no cut-off is given here.

Format in all cases: cell-based
Assay [1] deals with T1, Potassium channel subfamily K member 2 (Homo sapiens) (UniProt O95069).
T1 sequence (whole entry): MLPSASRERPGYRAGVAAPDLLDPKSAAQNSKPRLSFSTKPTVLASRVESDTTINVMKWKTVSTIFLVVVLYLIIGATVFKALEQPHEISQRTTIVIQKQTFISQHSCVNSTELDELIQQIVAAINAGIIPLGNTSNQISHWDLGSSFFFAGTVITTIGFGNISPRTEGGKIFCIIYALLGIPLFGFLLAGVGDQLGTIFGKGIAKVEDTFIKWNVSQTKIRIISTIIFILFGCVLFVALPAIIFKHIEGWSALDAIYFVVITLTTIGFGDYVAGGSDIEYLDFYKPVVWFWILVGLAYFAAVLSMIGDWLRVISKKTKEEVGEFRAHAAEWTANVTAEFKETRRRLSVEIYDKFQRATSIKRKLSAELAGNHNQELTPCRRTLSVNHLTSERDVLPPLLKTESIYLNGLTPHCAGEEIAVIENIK
In words: Reversible activation of K2P2.1 (unknown origin) expressed in HEK293T cells assessed as effect on channel currents at -0 mV holding potential at 5 to 20 uM by two-electrode voltage clamp assay relative to control. In general terms: Two-electrode voltage clamp holds a large cell at a set potential and records current.

Assay [2] has as its target T2, Potassium channel subfamily K member 10 (Homo sapiens) (UniProt P57789).
T2 sequence (whole entry): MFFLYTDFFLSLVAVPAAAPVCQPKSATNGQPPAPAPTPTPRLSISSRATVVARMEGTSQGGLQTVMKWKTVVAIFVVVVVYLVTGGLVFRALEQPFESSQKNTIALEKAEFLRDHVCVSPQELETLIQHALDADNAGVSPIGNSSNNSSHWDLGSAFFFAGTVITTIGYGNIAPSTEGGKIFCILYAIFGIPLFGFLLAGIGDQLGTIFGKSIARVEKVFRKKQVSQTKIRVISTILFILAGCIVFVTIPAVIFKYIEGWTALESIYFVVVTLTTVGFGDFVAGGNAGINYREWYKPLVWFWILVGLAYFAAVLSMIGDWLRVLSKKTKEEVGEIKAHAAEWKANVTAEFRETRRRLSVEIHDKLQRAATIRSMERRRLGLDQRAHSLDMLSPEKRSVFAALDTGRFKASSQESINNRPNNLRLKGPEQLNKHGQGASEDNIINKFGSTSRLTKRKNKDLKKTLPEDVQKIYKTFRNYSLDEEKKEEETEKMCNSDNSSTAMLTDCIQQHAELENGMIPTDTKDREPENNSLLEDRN
In words: Activation of K2P10.1 (unknown origin) expressed in Xenopus oocytes assessed as effect on channel currents at -80 mV holding potential at 100 uM by two-electrode voltage clamp assay relative to control.

In assay [3] the test system is Potassium channel subfamily K member 2 (Homo sapiens), O95069 [UNDEFINED MUTATION]. In words: Activation of K2P2.1 G137I mutant (unknown origin) expressed in Xenopus oocytes assessed as effect on channel currents at 50 uM at -80 mV holding potential by two-electrode voltage clamp assay.
For assay [4], the target named is Potassium channel subfamily K member 3 (Homo sapiens) (UniProt O14649). In words: Activation of K2P3.1 (unknown origin) expressed in Xenopus oocytes assessed as effect on channel currents at -80 mV holding potential by two-electrode voltage clamp assay relative to control.
Assay [5] addresses T1, Potassium channel subfamily K member 2 (Homo sapiens). In words: Activation of K2P2.1 (unknown origin) expressed in HEK293T cell membranes in inside-out patch configuration assessed as effect on channel currents by measuring time of return to baseline following compound washout at 20 uM by two-electrode voltage clamp assay relative to control.
The target of assay [6] is T3, Potassium channel subfamily K member 5 (Homo sapiens) (UniProt O95279).
T3 sequence (whole entry): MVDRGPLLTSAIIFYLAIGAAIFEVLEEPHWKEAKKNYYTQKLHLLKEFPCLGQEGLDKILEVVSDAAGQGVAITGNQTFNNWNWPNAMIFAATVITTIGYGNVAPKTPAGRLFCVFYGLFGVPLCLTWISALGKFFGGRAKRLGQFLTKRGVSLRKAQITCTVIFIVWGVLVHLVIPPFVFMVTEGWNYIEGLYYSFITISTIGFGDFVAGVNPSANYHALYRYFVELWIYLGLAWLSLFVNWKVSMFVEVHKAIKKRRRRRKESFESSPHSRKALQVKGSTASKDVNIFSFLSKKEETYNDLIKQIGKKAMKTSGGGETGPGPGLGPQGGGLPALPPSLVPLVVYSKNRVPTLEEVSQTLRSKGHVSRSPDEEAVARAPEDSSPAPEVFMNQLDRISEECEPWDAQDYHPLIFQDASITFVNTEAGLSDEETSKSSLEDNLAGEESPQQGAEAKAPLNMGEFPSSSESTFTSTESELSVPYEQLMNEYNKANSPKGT
In words: Activation of K2P5.1 (unknown origin) expressed in Xenopus oocytes assessed as effect on channel currents at -80 mV holding potential at 100 uM by two-electrode voltage clamp assay relative to control.

Assay [7] deals with Potassium channel subfamily K member 9 (Homo sapiens) (UniProt Q9NPC2). In words: Activation of K2P9.1 (unknown origin) expressed in Xenopus oocytes assessed as effect on channel currents at -80 mV holding potential at 100 uM by two-electrode voltage clamp assay relative to control.
Assay [8] concerns the target T3, Potassium channel subfamily K member 5 (Homo sapiens). In words: Activation of K2P5.1 (unknown origin) expressed in Xenopus oocytes assessed as effect on channel currents at -80 mV holding potential by two-electrode voltage clamp assay relative to control.
Assay [9] addresses T4, Potassium channel subfamily K member 4 (Homo sapiens) (UniProt Q9NYG8).
T4 sequence (whole entry): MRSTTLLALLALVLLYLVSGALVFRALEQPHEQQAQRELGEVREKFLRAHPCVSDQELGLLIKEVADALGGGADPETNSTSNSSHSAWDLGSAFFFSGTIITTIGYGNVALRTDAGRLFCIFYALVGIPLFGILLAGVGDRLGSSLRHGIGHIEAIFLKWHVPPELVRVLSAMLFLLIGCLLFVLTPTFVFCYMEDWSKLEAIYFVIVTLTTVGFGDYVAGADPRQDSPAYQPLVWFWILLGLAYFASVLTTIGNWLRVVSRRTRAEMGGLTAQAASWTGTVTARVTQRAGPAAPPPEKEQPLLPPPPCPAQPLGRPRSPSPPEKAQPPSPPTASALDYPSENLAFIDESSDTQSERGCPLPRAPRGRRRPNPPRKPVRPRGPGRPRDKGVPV
In words: Activation of K2P4.1 (unknown origin) expressed in Xenopus oocytes assessed as effect on channel currents at -80 mV holding potential by two-electrode voltage clamp assay relative to control.

In assay [10] the target is T1, Potassium channel subfamily K member 2 (Homo sapiens). In words: Activation of K2P2.1 (unknown origin) expressed in HEK293T cells assessed as effect on channel currents by measuring half-maximal activation time at 5 to 20 uM by two-electrode voltage clamp assay relative to control.

Chain of Potassium channel subfamily K member 9 (Homo sapiens) (Q9NPC2 whole entry): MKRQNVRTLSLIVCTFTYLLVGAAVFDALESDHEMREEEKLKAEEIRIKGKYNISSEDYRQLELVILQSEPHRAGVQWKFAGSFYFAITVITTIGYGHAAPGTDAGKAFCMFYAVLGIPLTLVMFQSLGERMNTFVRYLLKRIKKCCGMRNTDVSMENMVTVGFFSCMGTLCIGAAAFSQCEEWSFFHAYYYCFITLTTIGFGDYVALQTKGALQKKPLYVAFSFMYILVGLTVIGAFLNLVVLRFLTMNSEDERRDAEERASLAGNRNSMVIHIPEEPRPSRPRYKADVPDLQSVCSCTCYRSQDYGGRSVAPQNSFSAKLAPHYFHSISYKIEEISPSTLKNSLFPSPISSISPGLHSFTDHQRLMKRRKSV
Chain of Potassium channel subfamily K member 3 (Homo sapiens) (O14649 whole entry, looked up): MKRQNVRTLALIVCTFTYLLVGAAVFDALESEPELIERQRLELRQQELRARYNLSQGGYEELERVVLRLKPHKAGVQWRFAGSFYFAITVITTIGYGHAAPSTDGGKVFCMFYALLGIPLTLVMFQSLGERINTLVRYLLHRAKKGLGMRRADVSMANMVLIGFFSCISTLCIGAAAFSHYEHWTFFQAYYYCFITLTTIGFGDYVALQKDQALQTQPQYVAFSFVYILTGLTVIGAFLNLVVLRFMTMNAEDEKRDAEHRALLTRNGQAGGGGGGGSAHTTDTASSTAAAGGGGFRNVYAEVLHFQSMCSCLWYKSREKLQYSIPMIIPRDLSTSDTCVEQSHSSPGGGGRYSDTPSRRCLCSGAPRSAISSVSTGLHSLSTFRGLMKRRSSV

Consider `CC1(C)c2cc(Cl)ccc2N(CCc2nnn[nH]2)c2ccc(Cl)cc21`, for which, in assay [1], the result was Active. The Emax was determined as 11.4% in assay [2]; 1.1 in assay [4]; 1.7% in assay [6]; 2% in assay [7]; 1.7 in [8]; 14.7 in assay [9]. Also, in assay [3], the outcome was inactive. The T1/2 in assay [5] is 22 s. Besides, the TIME in assay [10] turned out to be 0.00114 h.
